# From patent publication US4056631A, “Method of combatting ticks” (Showa Denko K.K., priority 1973, dated 1977)
# What was measured:
# [1] = system: Haemaphysalis longicornis; assay: Test 2: killing of tick larvae of Haemaphysalis longicornis (immersion in emulsified aqueous solution); format: in vivo; conditions: immersed 2 to 5 minutes, 25° C. for 24 hours, read-out: Combatting Effect of Larvae of Haemaphysalis longicornis (mortality of unfed larvae)
# Method: (§1) Groups of 50 to 100 larvae of Boophilus microplus and Haemaphysalis longicornis of about two weeks old placed in paper packets were immeresed for 2 to 5 minutes in an emulsified aqueous solution of the test compounds of a concentration of 100 ppm, and the larvae were incubated at 25° C. for 24 hours according to the procedure described by Stone and Haydock (1962), and the rate of the larvae killed were determined. Each figure indicates mortality of unfed larvae after treatment with the test compounds.
# Boophilus microplus [2] = assay: Test 1: inhibition of oviposition by Boophilus microplus (acetone solution dropped on back of blood-fed females); conditions: Rhipicephalus microplus, topical, 336 h, read-out: Inhibition Ratio of Oviposition by Boophilus microplus
# From the text: (§3) One each of the adults of female Boophilus microplus or Haemaphysalis longicornis which had been allowed to suck blood fully was placed in a flat bottom test tube having a diameter of 10 millimeters and a depth of 35 millimeters. After rendering the chemicals to be tested into acetone solutions, the solutions were dropped to the back of the ticks in an amount corresponding to 110 gamma per one gram of body weight, using a micro syringe after which the acetone was evaporated. The test tube was then transferred to a desiccator containing a small portion of water where it was left standing at a constant temperature of 30° C., and the ticks were allowed to oviposit. Two weeks later, the amount of eggs laid per 1 gram of body weight was counted. Using this value and the amount of eggs laid in the case of the control group not treated with the chemicals, the rate of inhibition of oviposition was obtained as follows: [formula] where A is the number of eggs laid per gram of body weight of ticks of the group not treated with chemicals,
# (§4) B is the number of eggs laid per gram of body weight of ticks of the group treated with chemicals.
# (§5) The foregoing ratio was used to indicate the effectiveness of the chemicals tested.
# Boophilus microplus [3] = assay: Test 2: killing of tick larvae of Boophilus microplus (immersion in emulsified aqueous solution); format: in vivo; conditions: Rhipicephalus microplus, immersed 2 to 5 minutes, 25° C. for 24 hours, read-out: Combatting Effect of Larvae of Boophilus microplus (mortality of unfed larvae)
# Method: as §1
# [4] = system: Haemaphysalis longicornis; assay: Test 1: inhibition of oviposition by Haemaphysalis longicornis (acetone solution dropped on back of blood-fed females); conditions: topical, 336 h, read-out: Inhibition Ratio of Oviposition by Haemaphysalis longicornis
# From the text: as §3, §4, §5
# [5] = Test 4: acute oral toxicity in mice; set-up: species or system mice (male albino, strain ddY); conditions: mouse, in vivo, single dose, observed for a week
# Method: Acute oral toxicity was determined by using male albino mice strain ddY, 5 weeks old. The test compounds were administered orally once and the LD50 values were calculated after observing for a week.
# Boophilus microplus [6] = assay: Test 3: killing adults of Boophilus microplus (spray of diluted Recipe 1 emulsion); format: in vivo; set-up: key: (+): presence of deaths was observed; (-): there were no deaths; conditions: female adults
# Method: (§2) An emulsion was prepared in accordance with the foregoing Recipe 1, using as its active ingredient the compound No. 12. Several classes of spraying liquids having the concentrations indicated in Table 3 were prepared by diluting this emulsion with water. Ten female Boophilus microplus which had sucked blood fully were placed on a filter paper, and the liquid described above was sprayed onto the ticks with a glass sprayer in an amount such that the liquid would flow down the backs of the ticks. The ticks were then immediately transferred to a wet filter paper disposed in a Petri dish, and when the liquid on the backs of the ticks became somewhat dried, the dish was covered. The Petri dish was then held at a constant temperature of 30° C. for two weeks, after which the total amount of eggs laid was counted. During the time the Petri dish was held at a constant temperature, the inside of the Petri dish was maintained in a state of high humidity by dropping a small amount of water onto the filter paper daily. The effectiveness was judged by the rate of eggs laid by the several treated groups relative to the total eggs laid in the case of the ticks of the control group, which had been sprayed with only water. On the other hand, the effectiveness in killing the female adults was judged by observation of the presence or absence of deaths. The case where the presence of deaths was observed is indicated with the symbol (+), and the case where there were no deaths is indicated with the symbol (-).
# Boophilus microplus [7] = assay: Test 3: inhibiting oviposition by Boophilus microplus (spray of diluted Recipe 1 emulsion); format: in vivo; conditions: relative to water-sprayed control, two weeks, 30° C.
# Method: as §2
# mice = conditions: heretofore known tickicide; cited from earlier work
# [8] = concentration of compound 0.003%
# [9] = concentration of compound 0.01%
# [10] = concentration of compound 0.03%
Structure (SMILES),mortality at 100 ppm [1] [%],pest or weed control at 110 µg/g (Boophilus microplus [2]) [%],mortality at 100 ppm (Boophilus microplus [3]) [%],pest or weed control at 110 µg/g [4] [%],other results
"CCN=C=NC(C)(C)c1ccccc1 [Compound 1, N-ethyl-N'-(2-phenyl-2-propyl)carbodiimide]",98,,,,
"CCCN=C=NC(C)(C)c1ccccc1 [Compound 2, N-n-propyl-N'-(2-phenyl-2-propyl)carbodiimide]",,100,,,
"CC(C)N=C=NC(C)(C)c1ccccc1 [Compound 3, N-iso-propyl-N'-(2-phenyl-2-propyl) carbodiimide]",,,96.4,,
"CC(C)(C)N=C=NC(C)(C)c1ccccc1 [Compound 4, N-tert-butyl-N'-(2-phenyl-2-propyl)carbodiimide]",80.3,,,,
"CCCCCN=C=NC(C)(C)c1ccccc1 [Compound 5, N-n-pentyl-N'-(2-phenyl-2-propyl)carbodiimide]",100,,,100,
"CCCCCCN=C=NC(C)(C)c1ccccc1 [Compound 6, N-n-hexyl-N'-(2-phenyl-2-propyl)carbodiimide]",,96.3,74.6,100,LD50 at 168 h [5]: 2000 mg/kg
"CCCCCCCN=C=NC(C)(C)c1ccccc1 [Compound 7, N-n-heptyl-N'-(2-phenyl-2-propyl)carbodiimide]",,100,,100,
"CCCCCCCCN=C=NC(C)(C)c1ccccc1 [Compound 8, N-n-octyl-N'-(2-phenyl-2-propyl)carbodiimide]",,100,68.5,100,LD50 at 168 h [5]: 6000 mg/kg
"CCCCC(CC)CN=C=NC(C)(C)c1ccccc1 (centres unmarked) [Compound 9, N-(2-ethyl-n-hexyl)-N'-(2-phenyl-2-propyl)carbodiimide]",100,,,100,LD50 at 168 h [5]: 7000 mg/kg
"CCCCCCCCCN=C=NC(C)(C)c1ccccc1 [Compound 10, N-n-nonyl-N'-(2-phenyl-2-propyl)carbodiimide]",,100,,100,
"CCCCCCCCCCN=C=NC(C)(C)c1ccccc1 [Compound 11, N-n-decyl-N'-(2-phenyl-2-propyl)carbodiimide]",,93.1,,100,
"CCCCCCCCCCCCN=C=NC(C)(C)c1ccccc1 [Compound 12, N-n-dodecyl-N'-(2-phenyl-2-propyl)carbodiimide]",82.2,100,86.5,100,LD50 at 168 h [5]: > 16000 mg/kg; Effectiveness in Killing Adults (Boophilus microplus [6]; [8]): (-); Effectiveness in Killing Adults (Boophilus microplus [6]; [9]): (-); Effectiveness in Killing Adults (Boophilus microplus [6]; [10]): (-); Effectiveness in Killing Adults (Boophilus microplus [6]; concentration of compound 0.1%): (+); Effectiveness in Killing Adults (Boophilus microplus [6]; concentration of compound 0.3%): (+); Effectiveness in Killing Adults (Boophilus microplus [6]; concentration of compound 1%): (+); Rate of Eggs Laid (Boophilus microplus [7]; [8]): 94.8%; Rate of Eggs Laid (Boophilus microplus [7]; [9]): 85.5%; Rate of Eggs Laid (Boophilus microplus [7]; [10]): 62.6%; Rate of Eggs Laid (Boophilus microplus [7]; concentration of compound 0.1%): 0%; Rate of Eggs Laid (Boophilus microplus [7]; concentration of compound 0.3%): 0%; Rate of Eggs Laid (Boophilus microplus [7]; concentration of compound 1%): 0%
"CCCCCCCCCCCCCCN=C=NC(C)(C)c1ccccc1 [Compound 13, N-n-myristyl-N'-(2-phenyl-2-propyl)carbodiimide]",,85,92.8,100,
"CCCCCCCCCCCCCCCCN=C=NC(C)(C)c1ccccc1 [Compound 14, N-n-cetyl-N'-(2-phenyl-2-propyl)carbodiimide]",80.3,,,96.6,
"CCCCCCCCCCCCCCCCCCN=C=NC(C)(C)c1ccccc1 [Compound 15, N-n-stearyl-N'-(2-phenyl-2-propyl)carbodiimide]",,,,98,
"CC(C)(N=C=NC1CCCCC1)c1ccccc1 [Compound 16, N-cyclohexyl-N'-(2-phenyl-2-propyl)carbodiimide]",,100,100,,LD50 at 168 h [5]: 6000 mg/kg
"CC1CC(N=C=NC(C)(C)c2ccccc2)CC(C)(C)C1 (centres unmarked) [Compound 17, N-(3,3,5-trimethylcyclohexyl)-N'-(2-phenyl-2-propyl)carbodiimide]",100,100,100,100,LD50 at 168 h [5]: 11000 mg/kg
"CC(C)(N=C=Nc1ccccc1)c1ccccc1 [Compound 18, N-phenyl-N'-(2-phenyl-2-propyl)carbodiimide]",100,,100,,
"Cc1ccc(N=C=NC(C)(C)c2ccccc2)cc1 [Compound 19, N-p-tolyl-N'-(2-phenyl-2-propyl)carbodiimide]",86.6,,81.8,,
"COc1ccc(N=C=NC(C)(C)c2ccccc2)cc1 [Compound 20, N-p-methoxyphenyl-N-'-(2-phenyl-2-propyl)carbodiimide]",96.4,,,,
"COc1ccc(N=C=NC(C)(C)c2ccccc2)c(C)c1 [Compound 21, N-p-methoxy-o-tolyl-N'-(2-phenyl-2-propyl)carbodiimide]",100,,,,
"CC(C)(N=C=Nc1ccc(Cl)c(Cl)c1)c1ccccc1 [Compound 22, N-3,4-dichlorophenyl-N'-(2-phenyl-2-propyl)carbodiimide]",82.5,,,,
"CC(C)(N=C=NCc1ccccc1)c1ccccc1 [Compound 23, N-benzyl-N'-(2-phenyl-2-propyl)carbodiimide]",99.1,81.9,100,,
"CC(N=C=NC(C)(C)c1ccccc1)c1ccccc1 (stereo not drawn) [Compound 24, N-α-phenylethyl-N'-(2-phenyl-2-propyl)carbodiimide]",99.1,,99.5,100,
"CC(C)(N=C=NCCc1ccccc1)c1ccccc1 [Compound 25, N-β-phenylethyl-N'-(2-phenyl-2-propyl)carbodiimide]",100,100,91.2,100,
"CC(C)(N=C=NCc1ccc(Cl)cc1)c1ccccc1 [Compound 26, N-p-chlorobenzyl-N'-(2-phenyl-2-propyl)carbodiimide]",86.4,,81.9,,
"CC(C)(N=C=NCc1ccco1)c1ccccc1 [Compound 27, N-furfuryl-N'-(2-phenyl-2-propyl)carbodiimide]",91.1,,77.8,,
"Cc1cc(Cl)ccc1N=CN(C)C [Control Chemical I, reference compound]",,78.2,,,LD50 at 168 h [5]: 160 mg/kg
"CNC(=O)Oc1cccc2ccccc12 [Control Chemical II, reference compound]",,27,,,
"CCOP(=S)(OCC)Oc1nc(Cl)c(Cl)cc1Cl [Control Chemical III, O,O-diethyl O-(3,5,6-trichloro-2-pyridyl)phosphorothioate, reference compound]",,,,,LD50 at 168 h [5]: 70 mg/kg; LD50 for mice (mice): 70 mg/kg
